This note sets out measurements from article doi:10.1101/215335v1 (biorxiv, 2017).

For the assay, the target named is T1, TaALMT1 (Triticum aestivum, UniProt Q76LB1).
T1 sequence (Q76LB1 1-459): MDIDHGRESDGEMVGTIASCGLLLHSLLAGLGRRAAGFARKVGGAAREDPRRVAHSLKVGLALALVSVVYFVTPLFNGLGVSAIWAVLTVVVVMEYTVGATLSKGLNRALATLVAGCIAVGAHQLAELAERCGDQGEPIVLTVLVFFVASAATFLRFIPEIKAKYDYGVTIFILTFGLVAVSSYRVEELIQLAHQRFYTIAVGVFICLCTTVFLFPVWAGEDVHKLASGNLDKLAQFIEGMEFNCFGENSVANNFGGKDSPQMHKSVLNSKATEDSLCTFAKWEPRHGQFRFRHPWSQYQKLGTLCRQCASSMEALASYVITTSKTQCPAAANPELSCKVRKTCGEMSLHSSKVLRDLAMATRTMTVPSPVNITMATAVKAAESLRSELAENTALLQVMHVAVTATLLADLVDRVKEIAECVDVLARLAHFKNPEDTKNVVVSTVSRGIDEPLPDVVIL
Briefly: TEVC in Xenopus oocytes, malate-activated inward current. Format: cell-based. To be noted: read-out: % inhibition at 100 μM.

For orientation: inhibition means the drop in the measured response relative to a control, in per cent.

Consider `C=CC(N)CCC(=O)O` (stereo not shown) [vigabatrin], for which the inhibition at 100 µM came out at 100%.
